{"source": "paper PMC12508156", "about": "“Non-canonical dihydrolipoyl transacetylase promotes chemotherapy resistance via mitochondrial tetrahydrofolate signaling” (Nature Communications, 2025)", "format_in_all_cases": "cell-based, human", "key": {"PCI-37B cells": {"system": "PCI-37B cells", "assay": "Apoptotic cell death (annexin V/PI staining)", "details": "cisplatin 1 μg/ml, 48 h, n=1-3: biological replicates"}, "H1299 cells": {"system": "H1299 cells", "assay": "Apoptotic cell death (annexin V/PI staining)", "details": "cisplatin 5 μg/ml, 48 h, n=1-3: biological replicates"}, "[1]": {"system": "A549cisR and KB-3-1cisR cells", "assay": "Cell cycle distribution (propidium iodide, flow cytometry)", "description": "Cell viability was determined using the CellTiter-Glo Luminescent Cell Viability Assay. […] Subsequently, the cells were cultured in complete medium for an additional 10 days, and the resulting colonies were visualized by staining with crystal violet and quantified using ImageJ software. For cell cycle analysis, cells fixed with 70% ethanol were stained with RNase A (100 µg/mL) and propidium iodide (50 μg/ml) for 30 min at 37 °C, and DNA content distribution was measured using flow cytometry (BD Symphony A3) and analyzed with FlowJo software (v10.9). Apoptotic cell death was assessed via FITC-conjugated annexin V and propidium iodide staining.\n1cisR cells were transduced with DLAT-targeting shRNA and treated with sublethal doses of […]\nantioxidant N-acetylcysteine (NAC). (a) Western blot analysis of p21 waf1/cip1 expression as a marker of cellular senescence. (b) Western blot analysis of LC3-I/II and p62 as markers of autophagy. (c) Cell cycle distribution was assessed by flow cytometry following propidium iodide staining. (d) Intracellular ROS levels were measured using the H2DCFDA probe. Error bars represent SD and are from 3 independent biological replicates for (c,d). P values were determined by one-way ANOVA.\n(1 picture or pasted object on this page, not shown here)"}, "GSH/GSSG": {"system": "GSH/GSSG", "assay": "GSH/GSSG ratio (GSH/GSSG-Glo)"}, "[2]": {"details": "A549cisR cells, pLKO.1, replicate 1"}, "[3]": {"details": "A549cisR cells, pLKO.1, replicate 2"}, "[4]": {"details": "A549cisR cells, pLKO.1, replicate 3"}, "[5]": {"details": "A549cisR cells, shDLAT, replicate 1"}, "[6]": {"details": "A549cisR cells, shDLAT, replicate 2"}, "[7]": {"details": "A549cisR cells, shDLAT, replicate 3"}, "[8]": {"details": "KB-3-1cisR cells, pLKO.1, replicate 1"}, "[9]": {"details": "KB-3-1cisR cells, pLKO.1, replicate 2"}, "[10]": {"details": "KB-3-1cisR cells, pLKO.1, replicate 3"}, "[11]": {"details": "KB-3-1cisR cells, shDLAT, replicate 1"}, "[12]": {"details": "KB-3-1cisR cells, shDLAT, replicate 2"}, "[13]": {"details": "KB-3-1cisR cells, shDLAT, replicate 3"}}, "note": "Several values for one entry are separate records, joined by “and”; a condition that tells them apart may be missing. Identical values can stand only once.", "data": [{"smiles": "N.N.[Cl][Pt][Cl]", "note": "[cisplatin]", "values": [{"measurement": "Apoptotic death", "setting": "PCI-37B cells; PCI-37B pLKO.1", "value": 19.17}, {"measurement": "Apoptotic death", "setting": "PCI-37B cells; PCI-37B shDLAT #1", "value": 38.02}, {"measurement": "Apoptotic death", "setting": "PCI-37B cells; PCI-37B shDLAT #2", "value": "33.33 and 33.41 and 32.54"}, {"measurement": "Apoptotic death", "setting": "H1299 cells; H1299 pLKO.1", "value": 12.41}, {"measurement": "Apoptotic death", "setting": "H1299 cells; H1299 shDLAT #1", "value": "23.45 and 22.74"}, {"measurement": "Apoptotic death", "setting": "H1299 cells; H1299 shDLAT #2", "value": 18.43}, {"measurement": "Cell cycle, G1 phase", "setting": "[1]; [2]", "value": 34.1}, {"measurement": "Cell cycle, G2 phase", "setting": "[1]; [2]", "value": 36.2}, {"measurement": "Cell cycle, S phase", "setting": "[1]; [2]", "value": 29.7}, {"measurement": "Cell cycle, G1 phase", "setting": "[1]; [3]", "value": 33.1}, {"measurement": "Cell cycle, G2 phase", "setting": "[1]; [3]", "value": 39.3}, {"measurement": "Cell cycle, G1 phase", "setting": "[1]; [4]", "value": 33.1}, {"measurement": "Cell cycle, G2 phase", "setting": "[1]; [4]", "value": 38.8}, {"measurement": "Cell cycle, S phase", "setting": "[1]; [4]", "value": 28.1}, {"measurement": "Cell cycle, G1 phase", "setting": "[1]; [5]", "value": 39.2}, {"measurement": "Cell cycle, G2 phase", "setting": "[1]; [5]", "value": 37.2}, {"measurement": "Cell cycle, S phase", "setting": "[1]; [5]", "value": 23.6}, {"measurement": "Cell cycle, G1 phase", "setting": "[1]; [6]", "value": 39.5}, {"measurement": "Cell cycle, G2 phase", "setting": "[1]; [6]", "value": 39.6}, {"measurement": "Cell cycle, S phase", "setting": "[1]; [6]", "value": 20.9}, {"measurement": "Cell cycle, G1 phase", "setting": "[1]; [7]", "value": 39.5}, {"measurement": "Cell cycle, G2 phase", "setting": "[1]; [7]", "value": 38.6}, {"measurement": "Cell cycle, S phase", "setting": "[1]; [7]", "value": 21.9}, {"measurement": "Cell cycle, G1 phase", "setting": "[1]; [8]", "value": 23.3}, {"measurement": "Cell cycle, G2 phase", "setting": "[1]; [8]", "value": 58.9}, {"measurement": "Cell cycle, S phase", "setting": "[1]; [8]", "value": 17.8}, {"measurement": "Cell cycle, G1 phase", "setting": "[1]; [9]", "value": 23.7}, {"measurement": "Cell cycle, G2 phase", "setting": "[1]; [9]", "value": 58.1}, {"measurement": "Cell cycle, S phase", "setting": "[1]; [9]", "value": 18.2}, {"measurement": "Cell cycle, G1 phase", "setting": "[1]; [10]", "value": 24.3}, {"measurement": "Cell cycle, G2 phase", "setting": "[1]; [10]", "value": 57.9}, {"measurement": "Cell cycle, S phase", "setting": "[1]; [10]", "value": 17.8}, {"measurement": "Cell cycle, G1 phase", "setting": "[1]; [11]", "value": 18.3}, {"measurement": "Cell cycle, G2 phase", "setting": "[1]; [11]", "value": 63.6}, {"measurement": "Cell cycle, S phase", "setting": "[1]; [11]", "value": 18.1}, {"measurement": "Cell cycle, G1 phase", "setting": "[1]; [12]", "value": 17.6}, {"measurement": "Cell cycle, G2 phase", "setting": "[1]; [12]", "value": 63.5}, {"measurement": "Cell cycle, S phase", "setting": "[1]; [12]", "value": 18.9}, {"measurement": "Cell cycle, G1 phase", "setting": "[1]; [13]", "value": 17}, {"measurement": "Cell cycle, S phase", "setting": "[1]; [13]", "value": 19.8}, {"measurement": "GSH/GSSG", "setting": "GSH/GSSG; A549cisR cells, pLKO.1, n=1", "value": 18.3651}, {"measurement": "GSH/GSSG", "setting": "GSH/GSSG; A549cisR cells, pLKO.1, n=3", "value": 19.3614}, {"measurement": "GSH/GSSG", "setting": "GSH/GSSG; A549cisR cells, pLKO.1, n=4", "value": 18.0395}, {"measurement": "GSH/GSSG", "setting": "GSH/GSSG; A549cisR cells, shDLAT, n=1", "value": 8.402}, {"measurement": "GSH/GSSG", "setting": "GSH/GSSG; A549cisR cells, shDLAT, n=2", "value": 8.901}, {"measurement": "GSH/GSSG", "setting": "GSH/GSSG; A549cisR cells, shDLAT, n=4", "value": 10.9995}, {"measurement": "GSH/GSSG", "setting": "GSH/GSSG; A549cisR, CTL, sheet Figure 5G, replicate n=1", "value": 25.1517}, {"measurement": "GSH/GSSG", "setting": "GSH/GSSG; A549cisR, CTL, sheet Figure 5G, replicate n=2", "value": 26.0996}, {"measurement": "GSH/GSSG", "setting": "GSH/GSSG; A549cisR, CTL, sheet Figure 5G, replicate n=3", "value": 23.5884}, {"measurement": "GSH/GSSG", "setting": "GSH/GSSG; A549cisR, shDLAT+Flag-MTHFD2 (K44Q), sheet Figure 5G, replicate n=1", "value": 31.9457}, {"measurement": "GSH/GSSG", "setting": "GSH/GSSG; A549cisR, shDLAT+Flag-MTHFD2 (K44Q), sheet Figure 5G, replicate n=2", "value": 29.1783}, {"measurement": "GSH/GSSG", "setting": "GSH/GSSG; A549cisR, shDLAT+Flag-MTHFD2 (K44Q), sheet Figure 5G, replicate n=3", "value": 30.4077}, {"measurement": "GSH/GSSG", "setting": "GSH/GSSG; A549cisR, shDLAT+Flag-MTHFD2 (K44R), sheet Figure 5G, replicate n=1", "value": 8.894}, {"measurement": "GSH/GSSG", "setting": "GSH/GSSG; A549cisR, shDLAT+Flag-MTHFD2 (K44R), sheet Figure 5G, replicate n=2", "value": 10.2513}, {"measurement": "GSH/GSSG", "setting": "GSH/GSSG; A549cisR, shDLAT+Flag-MTHFD2 (K44R), sheet Figure 5G, replicate n=3", "value": 9.633}, {"measurement": "GSH/GSSG", "setting": "GSH/GSSG; A549cisR, shDLAT, sheet Figure 5G, replicate n=1", "value": 8.501}, {"measurement": "GSH/GSSG", "setting": "GSH/GSSG; A549cisR, shDLAT, sheet Figure 5G, replicate n=2", "value": 9.861}, {"measurement": "GSH/GSSG", "setting": "GSH/GSSG; A549cisR, shDLAT, sheet Figure 5G, replicate n=3", "value": 10.404}, {"measurement": "GSH/GSSG", "setting": "GSH/GSSG; KB-3-1cisR cells, pLKO.1, n=1", "value": 14.1658}, {"measurement": "GSH/GSSG", "setting": "GSH/GSSG; KB-3-1cisR cells, pLKO.1, n=2", "value": 13.5059}, {"measurement": "GSH/GSSG", "setting": "GSH/GSSG; KB-3-1cisR cells, pLKO.1, n=3", "value": 14.1711}, {"measurement": "GSH/GSSG", "setting": "GSH/GSSG; KB-3-1cisR cells, pLKO.1, n=4", "value": 12.6758}, {"measurement": "GSH/GSSG", "setting": "GSH/GSSG; KB-3-1cisR cells, shDLAT, n=3", "value": 6.177}, {"measurement": "GSH/GSSG", "setting": "GSH/GSSG; KB-3-1cisR cells, shDLAT, n=4", "value": 6.252}, {"measurement": "GSH/GSSG", "setting": "GSH/GSSG; KB-3-1cisR, CTL, sheet Figure 5G, replicate n=1", "value": 15.3805}, {"measurement": "GSH/GSSG", "setting": "GSH/GSSG; KB-3-1cisR, CTL, sheet Figure 5G, replicate n=2", "value": 14.4145}, {"measurement": "GSH/GSSG", "setting": "GSH/GSSG; KB-3-1cisR, CTL, sheet Figure 5G, replicate n=3", "value": 16.7699}, {"measurement": "GSH/GSSG", "setting": "GSH/GSSG; KB-3-1cisR, shDLAT+Flag-MTHFD2 (K44Q), sheet Figure 5G, replicate n=1", "value": 25.3381}, {"measurement": "GSH/GSSG", "setting": "GSH/GSSG; KB-3-1cisR, shDLAT+Flag-MTHFD2 (K44Q), sheet Figure 5G, replicate n=2", "value": 26.6695}, {"measurement": "GSH/GSSG", "setting": "GSH/GSSG; KB-3-1cisR, shDLAT+Flag-MTHFD2 (K44Q), sheet Figure 5G, replicate n=3", "value": 26.7501}, {"measurement": "GSH/GSSG", "setting": "GSH/GSSG; KB-3-1cisR, shDLAT+Flag-MTHFD2 (K44R), sheet Figure 5G, replicate n=1", "value": 6.376}, {"measurement": "GSH/GSSG", "setting": "GSH/GSSG; KB-3-1cisR, shDLAT+Flag-MTHFD2 (K44R), sheet Figure 5G, replicate n=2", "value": 6.273}, {"measurement": "GSH/GSSG", "setting": "GSH/GSSG; KB-3-1cisR, shDLAT+Flag-MTHFD2 (K44R), sheet Figure 5G, replicate n=3", "value": 6.832}, {"measurement": "GSH/GSSG", "setting": "GSH/GSSG; KB-3-1cisR, shDLAT, sheet Figure 5G, replicate n=1", "value": 7.027}, {"measurement": "GSH/GSSG", "setting": "GSH/GSSG; KB-3-1cisR, shDLAT, sheet Figure 5G, replicate n=2", "value": 6.914}, {"measurement": "GSH/GSSG", "setting": "GSH/GSSG; KB-3-1cisR, shDLAT, sheet Figure 5G, replicate n=3", "value": 7.456}]}]}
